{"source": "ChEMBL document CHEMBL4613246", "about": "“Antimycobacterial Rufomycin Analogues from Streptomyces atratus Strain MJM3502” (J Nat Prod, 2020)", "key": {"[1]": {"tested_on": "Mycobacterium tuberculosis", "test": "Antimycobacterial activity against Mycobacterium tuberculosis H37Rv assessed as reduction in microbial growth after 7 days by alamar blue assay", "assay_type": "functional", "settings": "168 h"}, "[2]": {"target": "T1, ATP-dependent Clp protease ATP-binding subunit ClpC1 (Mycobacterium tuberculosis, UniProt P9WPC9)", "T1 sequence (P9WPC9 whole entry, the tested form may be a part)": "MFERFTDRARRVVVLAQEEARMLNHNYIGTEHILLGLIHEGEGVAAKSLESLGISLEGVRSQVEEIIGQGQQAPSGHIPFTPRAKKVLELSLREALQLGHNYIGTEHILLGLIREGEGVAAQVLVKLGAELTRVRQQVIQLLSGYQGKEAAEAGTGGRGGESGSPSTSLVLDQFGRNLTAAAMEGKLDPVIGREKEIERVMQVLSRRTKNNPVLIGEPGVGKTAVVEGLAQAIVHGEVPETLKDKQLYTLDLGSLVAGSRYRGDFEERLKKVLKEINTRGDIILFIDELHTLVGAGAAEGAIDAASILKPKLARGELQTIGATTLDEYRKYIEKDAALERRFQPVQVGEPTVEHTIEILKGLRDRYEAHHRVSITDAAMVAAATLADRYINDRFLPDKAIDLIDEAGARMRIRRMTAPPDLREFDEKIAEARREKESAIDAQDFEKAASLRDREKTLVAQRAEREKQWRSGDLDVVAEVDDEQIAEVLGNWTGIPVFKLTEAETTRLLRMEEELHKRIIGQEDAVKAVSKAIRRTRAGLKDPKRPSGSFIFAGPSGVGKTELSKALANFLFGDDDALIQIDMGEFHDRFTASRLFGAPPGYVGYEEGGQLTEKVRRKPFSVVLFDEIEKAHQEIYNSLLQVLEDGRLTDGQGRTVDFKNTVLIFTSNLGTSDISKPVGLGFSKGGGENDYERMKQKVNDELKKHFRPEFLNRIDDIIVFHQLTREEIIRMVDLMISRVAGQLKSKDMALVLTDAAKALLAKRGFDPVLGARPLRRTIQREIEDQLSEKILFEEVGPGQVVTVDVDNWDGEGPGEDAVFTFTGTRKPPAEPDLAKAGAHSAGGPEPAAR", "test": "Binding affinity to recombinant Mycobacterium tuberculosis H37Rv N-terminal His6-tagged ClpC1 (1 to 145 residues) expressed in Escherichia coli BL21 cells by surface plasmon resonance analysis"}, "[3]": {"target": "T1, ATP-dependent Clp protease ATP-binding subunit ClpC1", "test": "Binding affinity to recombinant full length Mycobacterium tuberculosis H37Rv ClpC1 (1 to 842 residues) expressed in Escherichia coli BL21 cells by surface plasmon resonance analysis"}, "[4]": {"tested_on": "Mycobacterium tuberculosis", "test": "Antimycobacterial activity against nonreplicating Mycobacterium tuberculosis H37Rv under hypoxic condition by fluorescence based assay", "assay_type": "functional"}, "[5]": {"tested_on": "Mycobacteroides abscessus", "test": "Antimycobacterial activity against Mycobacterium abscessus ATCC 19977 assessed as reduction in microbial growth after 7 days by alamar blue assay", "assay_type": "functional", "settings": "ATCC 19977, 168 h"}, "[6]": {"tested_on": "Vero", "test": "cells", "settings": "Chlorocebus sabaeus", "description": "Cytotoxicity against African green monkey Vero cells"}}, "note": "Starred links: 1 amine or outer side, 2 acyl side, 3 side chain; linkers in the order of their positions; H or OH if unused. Non-standard residues stand in square brackets, D forms with d. Residues, ends and D or L forms follow the SMILES beside them. Trp(1-CMe2(2S-oxiranyl)) = CC(C)([C@H]1CO1)n1cc(C[C@H](N)C(=O)O)c2ccccc21; Trp(1-(1,1-Me2-allyl)) = C=CC(C)(C)n1cc(C[C@H](N)C(=O)O)c2ccccc21; X3 = CC(C)([C@H](O)CCl)n1cc(C[C@H](N[*:1])C(=O)[*:2])c2ccccc21; Tyr(3-NO2) = N[C@@H](Cc1ccc(O)c([N+](=O)[O-])c1)C(=O)O; NMeLeu(5-OH,4R) = CN[C@@H](C[C@@H](C)CO)C(=O)O; X1 = COC(OC)C(C)C[C@@H](C(=O)[*:2])N(C)[*:1]; X2 = C[C@H](CO)C[C@@H](C(=O)[*:2])N(C)[*:1]; Gly(E-crotyl) = C/C=C/C[C@H](N)C(=O)O; NMeL = CN[C@@H](CC(C)C)C(=O)O", "data": [{"smiles": "C/C=C/C[C@@H]1NC(=O)[C@H](CC(C)C)N2C(=O)[C@H](C[C@@H](C)[C@H]2O)N(C)C(=O)[C@H](C)NC(=O)[C@H](Cc2ccc(O)c([N+](=O)[O-])c2)NC(=O)[C@H](CC(C)C)N(C)C(=O)[C@H](Cc2cn(C(C)(C)[C@H](O)CO)c3ccccc23)NC1=O", "values": [{"measurement": "MIC", "setting": "[1]", "value": 0.1, "unit": "µM"}, {"measurement": "Kd", "setting": "[2]", "value": 300, "unit": "nM"}, {"measurement": "Kd", "setting": "[3]", "value": 280, "unit": "nM"}, {"measurement": "MIC", "setting": "[4]", "value": "4 to 10", "unit": "µM"}]}, {"smiles": "C/C=C/C[C@@H]1NC(=O)[C@H](CC(C)C)NC(=O)[C@H](C[C@H](C)CO)N(C)C(=O)[C@H](C)NC(=O)[C@H](Cc2ccc(O)c([N+](=O)[O-])c2)NC(=O)[C@H](CC(C)C)N(C)C(=O)[C@H](Cc2cn(C(C)(C)[C@H]3CO3)c3ccccc23)NC1=O", "note": "(cyclo(A[X2]L[Gly(E-crotyl)][Trp(1-CMe2(2S-oxiranyl))][NMeL][Tyr(3-NO2)]))", "values": [{"measurement": "MIC", "setting": "[1]", "value": 0.25, "unit": "µM"}, {"measurement": "Kd", "setting": "[2]", "value": 620, "unit": "nM"}, {"measurement": "Kd", "setting": "[3]", "value": 500, "unit": "nM"}, {"measurement": "MIC", "setting": "[4]", "value": "4 to 10", "unit": "µM"}]}, {"smiles": "C=CC(C)(C)n1cc(C[C@@H]2NC(=O)[C@H](C/C=C/C)NC(=O)[C@H](CC(C)C)NC(=O)[C@H](C[C@H](C)CO)N(C)C(=O)[C@H](C)NC(=O)[C@H](Cc3ccc(O)c([N+](=O)[O-])c3)NC(=O)[C@H](CC(C)C)N(C)C2=O)c2ccccc21", "note": "(cyclo(A[X2]L[Gly(E-crotyl)][Trp(1-(1,1-Me2-allyl))][NMeL][Tyr(3-NO2)]))", "values": [{"measurement": "MIC", "setting": "[1]", "value": 0.84, "unit": "µM"}, {"measurement": "Kd", "setting": "[2]", "value": 1100, "unit": "nM"}, {"measurement": "Kd", "setting": "[3]", "value": 1100, "unit": "nM"}, {"measurement": "MIC", "setting": "[4]", "value": "4 to 10", "unit": "µM"}]}, {"smiles": "C/C=C/C[C@@H]1NC(=O)[C@H](CC(C)C)N2C(=O)[C@H](CC(C)[C@H]2O)N(C)C(=O)[C@H](C)NC(=O)[C@H](Cc2ccc(O)c([N+](=O)[O-])c2)NC(=O)[C@H](CC(C)C)N(C)C(=O)[C@H](Cc2cn(C(C)(C)[C@H]3CO3)c3ccccc23)NC1=O", "note": "(stereo not given in full)", "values": [{"measurement": "MIC", "setting": "[1]", "value": 0.02, "unit": "µM"}, {"measurement": "MIC", "setting": "[5]", "value": 0.29, "unit": "µM"}, {"measurement": "Kd", "setting": "[2]", "value": 60, "unit": "nM"}, {"measurement": "Kd", "setting": "[3]", "value": 60, "unit": "nM"}, {"measurement": "MIC", "setting": "[4]", "value": "4 to 10", "unit": "µM"}]}, {"smiles": "C/C=C/C[C@@H]1NC(=O)[C@H](CC(C)C)NC(=O)[C@H](CC(C)C)N(C)C(=O)[C@H](C)NC(=O)[C@H](Cc2ccc(O)c([N+](=O)[O-])c2)NC(=O)[C@H](CC(C)C)NC(=O)[C@H](Cc2cn(C(C)(C)[C@H]3CO3)c3ccccc23)NC1=O", "note": "(cyclo(A[NMeL]L[Gly(E-crotyl)][Trp(1-CMe2(2S-oxiranyl))]L[Tyr(3-NO2)]))", "values": [{"measurement": "MIC", "setting": "[1]", "value": 0.57, "unit": "µM"}, {"measurement": "Kd", "setting": "[3]", "value": 1500, "unit": "nM"}, {"measurement": "MIC", "setting": "[4]", "value": "4 to 10", "unit": "µM"}]}, {"smiles": "C/C=C/C[C@@H]1NC(=O)[C@H](CC(C)C)NC(=O)[C@H](CC(C)C)N(C)C(=O)[C@H](C)NC(=O)[C@H](Cc2ccc(O)c([N+](=O)[O-])c2)NC(=O)[C@H](CC(C)C)N(C)C(=O)[C@H](Cc2cn(C(C)(C)[C@H](O)CCl)c3ccccc23)NC1=O", "note": "(cyclo(A[NMeL]L[Gly(E-crotyl)][X3][NMeL][Tyr(3-NO2)]))", "values": [{"measurement": "Kd", "setting": "[2]", "value": 1500, "unit": "nM"}, {"measurement": "Kd", "setting": "[3]", "value": 1500, "unit": "nM"}, {"measurement": "MIC", "setting": "[4]", "value": "4 to 10", "unit": "µM"}]}, {"smiles": "C/C=C/C[C@@H]1NC(=O)[C@H](CC(C)C)N2C(=O)[C@H](C[C@](C)(O)[C@H]2O)N(C)C(=O)[C@H](C)NC(=O)[C@H](Cc2ccc(O)c([N+](=O)[O-])c2)NC(=O)[C@H](CC(C)C)N(C)C(=O)[C@H](Cc2cn(C(C)(C)[C@H]3CO3)c3ccccc23)NC1=O", "values": [{"measurement": "MIC", "setting": "[1]", "value": 0.03, "unit": "µM"}, {"measurement": "Kd", "setting": "[2]", "value": 60, "unit": "nM"}, {"measurement": "Kd", "setting": "[3]", "value": 50, "unit": "nM"}, {"measurement": "MIC", "setting": "[4]", "value": "4 to 10", "unit": "µM"}]}, {"smiles": "C/C=C/C[C@@H]1NC(=O)[C@H](CC(C)C)NC(=O)[C@H](C[C@@H](C)CO)N(C)C(=O)[C@H](C)NC(=O)[C@H](Cc2ccc(O)c([N+](=O)[O-])c2)NC(=O)[C@H](CC(C)C)N(C)C(=O)[C@H](Cc2cn(C(C)(C)[C@H]3CO3)c3ccccc23)NC1=O", "note": "(cyclo(A[NMeLeu(5-OH,4R)]L[Gly(E-crotyl)][Trp(1-CMe2(2S-oxiranyl))][NMeL][Tyr(3-NO2)]))", "values": [{"measurement": "MIC", "setting": "[1]", "value": 0.44, "unit": "µM"}, {"measurement": "Kd", "setting": "[2]", "value": 1600, "unit": "nM"}, {"measurement": "Kd", "setting": "[3]", "value": 1300, "unit": "nM"}, {"measurement": "MIC", "setting": "[4]", "value": "4 to 10", "unit": "µM"}]}, {"smiles": "CO[C@H]1/C=C/O[C@@]2(C)Oc3c(C)c(O)c4c(O)c(c(/C=N/N5CCN(C)CC5)c(O)c4c3C2=O)NC(=O)/C(C)=C\\C=C\\[C@H](C)[C@H](O)[C@@H](C)[C@@H](O)[C@@H](C)[C@H](OC(C)=O)[C@@H]1C", "note": "[RIFAMPIN]", "values": [{"measurement": "MIC", "setting": "[1]", "value": 0.03, "unit": "µM"}, {"measurement": "MIC", "setting": "[5]", "value": "> 4", "unit": "µM"}, {"measurement": "IC50", "setting": "[6]", "value": "> 122000", "unit": "nM"}]}, {"smiles": "NNC(=O)c1ccncc1", "note": "[ISONIAZID]", "values": [{"measurement": "MIC", "setting": "[1]", "value": 0.46, "unit": "µM"}, {"measurement": "MIC", "setting": "[5]", "value": "> 8", "unit": "µM"}, {"measurement": "IC50", "setting": "[6]", "value": "> 50000", "unit": "nM"}]}, {"smiles": "C/C=C/C[C@@H]1NC(=O)[C@H](CC(C)C)NC(=O)[C@H](CC(C)C(OC)OC)N(C)C(=O)[C@H](C)NC(=O)[C@H](Cc2ccc(O)c([N+](=O)[O-])c2)NC(=O)[C@H](CC(C)C)N(C)C(=O)[C@H](Cc2cn(C(C)(C)[C@H]3CO3)c3ccccc23)NC1=O", "note": "(stereo partly drawn) (cyclo(A[X1]L[Gly(E-crotyl)][Trp(1-CMe2(2S-oxiranyl))][NMeL][Tyr(3-NO2)]))", "values": [{"measurement": "MIC", "setting": "[1]", "value": 0.11, "unit": "µM"}, {"measurement": "Kd", "setting": "[2]", "value": 310, "unit": "nM"}, {"measurement": "Kd", "setting": "[3]", "value": 450, "unit": "nM"}, {"measurement": "MIC", "setting": "[4]", "value": "4 to 10", "unit": "µM"}]}, {"smiles": "C=CC(C)(C)n1cc(C[C@@H]2NC(=O)[C@H](C/C=C/C)NC(=O)[C@H](CC(C)C)NC(=O)[C@H](CC(C)C)N(C)C(=O)[C@H](C)NC(=O)[C@H](Cc3ccc(O)c([N+](=O)[O-])c3)NC(=O)[C@H](CC(C)C)N(C)C2=O)c2ccccc21", "note": "(cyclo(A[NMeL]L[Gly(E-crotyl)][Trp(1-(1,1-Me2-allyl))][NMeL][Tyr(3-NO2)]))", "values": [{"measurement": "MIC", "setting": "[1]", "value": 1.7, "unit": "µM"}, {"measurement": "Kd", "setting": "[2]", "value": 1200, "unit": "nM"}, {"measurement": "Kd", "setting": "[3]", "value": 3200, "unit": "nM"}, {"measurement": "MIC", "setting": "[4]", "value": "4 to 10", "unit": "µM"}]}, {"smiles": "C/C=C/C[C@@H]1NC(=O)[C@H](CC(C)C)NC(=O)[C@H](CC(C)C)N(C)C(=O)[C@H](C)NC(=O)[C@H](Cc2ccc(O)c([N+](=O)[O-])c2)NC(=O)[C@H](CC(C)C)N(C)C(=O)[C@H](Cc2cn(C(C)(C)[C@H]3CO3)c3ccccc23)NC1=O", "note": "(cyclo(A[NMeL]L[Gly(E-crotyl)][Trp(1-CMe2(2S-oxiranyl))][NMeL][Tyr(3-NO2)]))", "values": [{"measurement": "MIC", "setting": "[1]", "value": 0.2, "unit": "µM"}, {"measurement": "Kd", "setting": "[2]", "value": 1700, "unit": "nM"}, {"measurement": "Kd", "setting": "[3]", "value": 540, "unit": "nM"}, {"measurement": "MIC", "setting": "[4]", "value": "4 to 10", "unit": "µM"}]}, {"smiles": "C=CC(C)(C)n1cc(C[C@@H]2NC(=O)[C@H](C/C=C/C)NC(=O)[C@H](CC(C)C)NC(=O)[C@H](CC(C)C)N(C)C(=O)[C@H](C)NC(=O)[C@H](Cc3ccc(O)cc3)NC(=O)[C@H](CC(C)C)N(C)C2=O)c2ccccc21", "note": "(HELM PEPTIDE1{A.[meL].L.[C/C=C/C[C@H](N[*:1])C(=O)[*:2]].[C=CC(C)(C)n1cc(C[C@H](N[*:1])C(=O)[*:2])c2ccccc21].[meL].Y}$PEPTIDE1,PEPTIDE1,1:R1-7:R2$$$V2.0)", "values": [{"measurement": "MIC", "setting": "[1]", "value": "> 10", "unit": "µM"}, {"measurement": "Kd", "setting": "[2]", "value": 1200, "unit": "nM"}, {"measurement": "Kd", "setting": "[3]", "value": 5700, "unit": "nM"}, {"measurement": "MIC", "setting": "[4]", "value": "4 to 10", "unit": "µM"}]}, {"smiles": "C=CC(C)(C)n1cc(C[C@@H]2NC(=O)[C@H](CC(C)C)N(C)C2=O)c2ccccc21", "values": [{"measurement": "MIC", "setting": "[1]", "value": "> 10", "unit": "µM"}, {"measurement": "MIC", "setting": "[4]", "value": "4 to 10", "unit": "µM"}]}]}
